# Assay results reported in patent US20240228499A1, “MASP-2 INHIBITORS AND METHODS OF USE” (Omeros Corporation, priority 2022, published 2024).
# Counter-ions that a name gives are not always drawn.
# Legend:
# [1] = molecular target: T1, human a-thrombin (Homo sapiens, UniProt P00734); assay: Enzymatic assay for thrombin (fluorogenic peptide substrate Boc-VPR-AMC); assay type: biochemical; settings: room temperature, 20 mM Hepes pH 7.4, 20 min
# T1 construct: enzyme (human a-thrombin (BioPharm® Lab.)); purchased BioPharm Lab
# Outline: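 Human α-thrombin was incubated with serially diluted compound and fluorogenic substrate Boc-VPR-AMC in 20 mM Hepes pH 7.4, 140 mM NaCl, 0.1% Tween 20 at room temperature. The reaction was stopped after 20 min with 0.1 M acetic acid and fluorescence read. % activity was normalized to DMSO and no-enzyme controls, and IC50 was taken as equivalent to Ki.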
# [2] = system: Lectin Pathway Activation (LPA) in human serum; assay: Lectin pathway activation (LPA) assay in human serum, C4 deposition on mannan-coated plate; assay type: biochemical; settings: 1% pooled human serum, 55 minutes, room temperature
# Protocol: A Microtiter ELISA plate (Nunc-Maxi Sorp; Sigma-Aldrich®, USA) was coated with mannan sourced from Saccharomyces cerevisiae (Sigma-Aldrich®, USA) in a coating buffer comprising 33.3 mM Na2CO3 and 166.67 mM NaHCO3. The plates were incubated at room temperature overnight. Subsequently, the plates were blocked with a 5% bovine serum albumin solution (Sigma-Aldrich®, USA) prepared in PBST for 2 hours at room temperature with agitation. Varying concentrations of MASP-2 inhibitors were dispensed onto the empty plate.
# To perform the assay, pooled human serum was diluted to 1% in a solution of 20 mM HEPES (pH=7.4), 140 mM NaCl, and 1 mM MgCl2. Then, 40 μl of the diluted human serum was dispensed into each well of the Microtiter ELISA plate and incubated for 55 minutes at room temperature. The C4 deposition on the mannan-coated surface was stopped using an EDTA stop solution (20 mM HEPES, pH=7.4, 140 mM NaCl, and 150 mM EDTA). Subsequently, rabbit anti-Human C4c antibody (Agilent Technologies, USA) prepared in PBST was added, and the plates were incubated at room temperature for 30 minutes with agitation, then washed with PBST, and Goat anti-rabbit IgG(H+L) HRP-conjugated (Southern Biotech®, USA) was added. The plates were again incubated at room temperature for 30 minutes with agitation, and then were washed with PBST. Following this, the Amplex® UltraRed® (Thermo Fischer Sci, USA) substrate solution was added for 16 minutes, followed by the addition of the Amplex® UltraRed® stop solution. The plates' fluorescence was measured using an i3× microplate reader (Molecular Devices, USA) with excitation at 550 nm and emission at 580 nm. The raw data generated from the plate reader was exported to GraphPad Prism® (version 10.0.3), and the non-linear regression curve was generated using the 4-parameter logistic fit equation. All data are reported as pIC50 with a 95% confidence interval.
# [3] = molecular target: T2, MASP-2 (CCP1-CCP2-SP) (Homo sapiens, UniProt O00187); assay: Enzymatic assay for MASP-2 inhibitory activity (fluorogenic substrate); assay type: biochemical; settings: room temperature, 20 mM Hepes pH 7.4, 20 min
# T2 construct: 15 μL of Enzyme MASP-2 (CCP1-CCP2-SP) in Assay Buffer
# Outline: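 Human MASP-2 CCP1-CCP2-SP construct with a C2-cleavage-site fluorogenic substrate in 20 mM HEPES pH 7.4, 140 mM NaCl, 0.1% Tween 20, 20 min at room temperature before acetic acid stop. Activity normalised to DMSO and no-enzyme controls; IC50 taken as equivalent to Ki under linear conditions.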
# [4] = system: HSCT-TMA; settings: once-weekly treatment, HSCT-TMA patients; cited from earlier work
# [5] = system: microvascular endothelial cell injury; settings: tissue culture model; cited from earlier work
# [6] = system: severe IgA nephropathy; settings: cited from earlier work
# T2 sequence (O00187 287-686 limits assumed): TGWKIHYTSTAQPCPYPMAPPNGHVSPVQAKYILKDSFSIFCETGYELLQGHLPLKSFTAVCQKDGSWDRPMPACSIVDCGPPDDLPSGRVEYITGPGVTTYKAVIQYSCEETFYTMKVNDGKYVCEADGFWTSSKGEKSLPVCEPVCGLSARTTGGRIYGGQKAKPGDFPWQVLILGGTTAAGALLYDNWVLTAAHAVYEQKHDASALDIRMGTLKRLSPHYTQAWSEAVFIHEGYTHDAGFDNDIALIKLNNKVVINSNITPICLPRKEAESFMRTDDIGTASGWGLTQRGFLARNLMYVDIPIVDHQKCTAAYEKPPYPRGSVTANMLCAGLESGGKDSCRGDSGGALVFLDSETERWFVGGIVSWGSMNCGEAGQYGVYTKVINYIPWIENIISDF
Compound,Ki [1] [nM],IC50 [2] [nM],Ki [3] [nM],response rate based on improvement in laboratory TMA markers and clinical benefit [4] [%],effect on HSCT-TMA plasma-mediated endothelial damage [5],"tolerability ([6]; human, in vivo)","urine protein excretion decrease from baseline ([6]; once-weekly treatment, after 3 years of follow-up) [%]","annualized rate of kidney function decline ([6]; once-weekly treatment, after 3 years of follow-up, matched external comparator group 8.6) [mL/min/yr]"
Nc1ccc2c(n1)CC[C@H]2NC(=O)[C@@H]1CCc2ncc(NCc3cccc(C(F)(F)F)c3)c(=O)n21 [Compound 105],2500 to 10000,< 500,< 500,–,–,–,–,–
Cc1cc(C)cc(CNc2cnc3n(c2=O)[C@H](C(=O)N[C@H](C)c2cc4c(s2)CNC4)CC3)c1 [Compound 106],> 25000,< 500,< 500,–,–,–,–,–
"COc1cc(Cl)cc(CNc2cnc3n(c2=O)[C@H](C(=O)N[C@H](C)c2ccc(N)nc2)CC3)c1 [Compound 76, (S)-N-((R)-1-(6-aminopyridin-3-yl)ethyl)-3-((3-chloro-5-methoxybenzyl)amino)-4-oxo-4,6,7,8-tetrahydropyrrolo[1,2-a]pyrimidine-6-carboxamide]",10000 to 25000,< 500,< 500,–,–,–,–,–
"Cc1cc(Cl)cc(CNc2cnc3n(c2=O)[C@H](C(=O)NCc2cnc4c(c2)CNC4)CC3)c1 [Compound 65, (S)-3-((3-chloro-5-methylbenzyl)amino)-N-((6,7-dihydro-5H-pyrrolo[3,4-b]pyridin-3-yl)methyl)-4-oxo-4,6,7,8-tetrahydropyrrolo[1,2-a]pyrimidine-6-carboxamide, di-trifluoroacetate]",> 25000,< 500,< 500,–,–,–,–,–
"N#CC1C2CC1C2CNc1cnc2n(c1=O)[C@H](C(=O)N[C@@H]1CCc3nc(N)ccc31)CC2 (stereo partly drawn) [Compound 86, (6S)—N—((R)-2-amino-6,7-dihydro-5H-cyclopenta[b]pyridin-5-yl)-3-(((4-cyanobicyclo[1.1.1]pentan-2-yl)methyl)amino)-4-oxo-4,6,7,8-tetrahydropyrrolo[1,2-a]pyrimidine-6-carboxamide]",> 25000,< 500,< 500,–,–,–,–,–
narsoplimab,–,–,–,61,reduce HSCT-TMA plasma-mediated endothelial damage,well tolerated,38,5.2
Nc1ccc2c(n1)CC[C@H]2NC(=O)[C@@H]1CCc2ncc(NCc3ccc4c(c3)COC4)c(=O)n21 [Compound 100],2500 to 10000,< 500,< 500,–,–,–,–,–
"Cc1ccc(F)c(CNc2cnc3n(c2=O)[C@H](C(=O)NCc2cc4c(s2)CNC4)CC3)c1 [Compound 50, (S)—N-((5,6-dihydro-4H-thieno[2,3-C]pyrrol-2-yl)methyl)-3-((2-fluoro-5-methylbenzyl)amino)-4-oxo-4,6,7,8-tetrahydropyrrolo[1,2-a]pyrimidine-6-carboxamide, di-trifluoroacetate]",2500 to 10000,< 500,< 500,–,–,–,–,–
"Cc1nc(N)ccc1CNC(=O)[C@@H]1CCc2ncc(NCc3ccc(-n4cccn4)cc3)c(=O)n21 [Compound 44, (S)-3-((4-(1H-pyrazol-1-yl)benzyl)amino)-N-((6-amino-2-methylpyridin-3-yl)methyl)-4-oxo-4,6,7,8-tetrahydropyrrolo[1,2-a]pyrimidine-6-carboxamide, trifluoroacetate]",10000 to 25000,< 500,< 500,–,–,–,–,–
CS(=O)(=O)c1cccc(CNc2cnc3n(c2=O)[C@H](C(=O)N[C@@H]2CCc4nc(N)ccc42)CC3)c1 [Compound 97],500 to 2500,< 500,< 500,–,–,–,–,–
Cc1ccc(F)c(CNc2cnc3n(c2=O)[C@H](C(=O)N[C@@H]2CCc4nc(N)ccc42)CC3)c1 [Compound 95],500 to 2500,< 500,< 500,–,–,–,–,–

# Continued, in another order:
Ki [1] [nM],IC50 [2] [nM],Ki [3] [nM],Compound,response rate based on improvement in laboratory TMA markers and clinical benefit [4] [%],effect on HSCT-TMA plasma-mediated endothelial damage [5],"tolerability ([6]; human, in vivo)","urine protein excretion decrease from baseline ([6]; once-weekly treatment, after 3 years of follow-up) [%]","annualized rate of kidney function decline ([6]; once-weekly treatment, after 3 years of follow-up, matched external comparator group 8.6) [mL/min/yr]"
500 to 2500,< 500,< 500,"Cc1cc(C)cc(CNc2cnc3n(c2=O)[C@H](C(=O)N[C@@H]2CCc4nc(N)ccc42)CC3)c1 [Compound 81, (S)—N—((R)-2-amino-6,7-dihydro-5H-cyclopenta[b]pyridin-5-yl)-3-((3,5-dimethylbenzyl)amino)-4-oxo-4,6,7,8-tetrahydropyrrolo[1,2-a]pyrimidine-6-carboxamide]",–,–,–,–,–
500 to 2500,< 500,< 500,"Cc1nc(N)ccc1CNC(=O)[C@@H]1CCc2ncc(NCc3cccc(F)c3)c(=O)n21 [Compound 53, (S)—N-((6-amino-2-methylpyridin-3-yl)methyl)-3-((3-fluorobenzyl)amino)-4-oxo-4,6,7,8-tetrahydropyrrolo[1,2-a]pyrimidine-6-carboxamide]",–,–,–,–,–
500 to 2500,< 500,< 500,Cc1ccc(C)c(CNc2cnc3n(c2=O)[C@H](C(=O)N[C@@H]2CCc4nc(N)ccc42)CC3)c1 [Compound 94],–,–,–,–,–
500 to 2500,< 500,< 500,"Cc1ccc(CNc2cnc3n(c2=O)[C@H](C(=O)NCc2ccc(N)nc2C)CC3)cc1C [Compound 72, (S)-N-((6-amino-2-methylpyridin-3-yl)methyl)-3-((3,4-dimethylbenzyl)amino)-4-oxo-4,6,7,8-tetrahydropyrrolo[1,2-a]pyrimidine-6-carboxamide]",–,–,–,–,–
500 to 2500,< 500,< 500,"Cc1cccc(CNc2cnc3n(c2=O)[C@H](C(=O)N[C@@H]2CCc4nc(N)ccc42)CC3)c1 [Compound 82, (S)—N—((R)-2-amino-6,7-dihydro-5H-cyclopenta[b]pyridin-5-yl)-3-((3-methylbenzyl)amino)-4-oxo-4,6,7,8-tetrahydropyrrolo[1,2-a]pyrimidine-6-carboxamide]",–,–,–,–,–
500 to 2500,< 500,< 500,"N#Cc1cc(CNc2cnc3n(c2=O)[C@H](C(=O)N[C@@H]2CCc4nc(N)ccc42)CC3)cc(C(F)(F)F)c1 [Compound 90, (S)-N-((R)-2-amino-6,7-dihydro-5H-cyclopenta[b]pyridin-5-yl)-3-((3-cyano-5-(trifluoromethyl)benzyl)amino)-4-oxo-4,6,7,8-tetrahydropyrrolo[1,2-a]pyrimidine-6-carboxamide]",–,–,–,–,–
500 to 2500,< 500,< 500,"Cc1nc(N)ccc1CNC(=O)[C@@H]1CCc2ncc(NCc3cccc(OC(F)F)c3)c(=O)n21 [Compound 75, (S)-N-((6-amino-2-methylpyridin-3-yl)methyl)-3-((3-(difluoromethoxy)benzyl)amino)-4-oxo-4,6,7,8-tetrahydro-pyrrolo[1,2-a]pyrimidine-6-carboxamide]",–,–,–,–,–
500 to 2500,< 500,< 500,"Cc1ccccc1CNc1cnc2n(c1=O)[C@H](C(=O)NCc1ccc(N)nc1C)CC2 [Compound 54, (S)—N-((6-amino-2-methylpyridin-3-yl)methyl)-3-((2-methylbenzyl)amino)-4-oxo-4,6,7,8-tetrahydropyrrolo[1,2-a]pyrimidine-6-carboxamide]",–,–,–,–,–
